Assay: Cesium distribution ratio (DCs), equilibrium batch contact of mixed extractant solvent with nitric acid feed
Type: physicochemical
Source text: The distribution of cesium and strontium between the first organic phase (the mixed extractant solvent including the dialkyloxycalix[4]arenebenzocrown-6 compound) and the first aqueous phase (aqueous feed) may be determined by conventional techniques. The distribution ratio for strontium (“DSr”) may be calculated as the ratio of organic phase activity to the aqueous phase activity at equilibrium. High values for the DSr indicate that the strontium is present predominantly in the organic phase while low values for the DSr indicate that the strontium is present predominantly in the aqueous phase. Similarly, the distribution ratio for cesium (“DCs”) may be calculated as the ratio of organic phase activity to the aqueous phase activity at equilibrium. High values for the DCs indicate that the cesium is present predominantly in the organic phase while low values for the DCs indicate that the cesium is present predominantly in the aqueous phase.
Distribution ratios (DM=[M]org/[M]aq) were measured by equilibrium batch contacts between the organic and aqueous phases at an organic-to-aqueous phase ratio (O/A) of unity (O/A=1). All distribution ratio measurements were conducted in a temperature controlled water bath at 25±1° C. The aqueous phase was of the appropriate HNO3 concentration, to which trace quantities (typically, less than 10^−7 M each) of the major radionuclides of interest (^137Cs, ^85Sr, ^154Eu, or ^241Am) were added. The organic and aqueous phases were contacted by vortex mixing for 1 minute. All batch contact experiments were performed at ambient temperature (from approximately 20° C. to approximately 25° C.) unless otherwise noted. Following extraction, the samples were centrifuged for 1 minute and the organic and aqueous phases separated by pipet or centrifugation. The distribution ratios (DSr, or DCs) were calculated as the ratio of the appropriate specific activities in the organic and aqueous phases as determined by γ-ray counting (gamma spectroscopy). The counting time was selected to provide less than approximately 1% statistical uncertainty.
(MC-8, MC-8B, MC-10, MC-10B, MC-12, or MC-12B), 0.075 M DtBuCH18C6, 0.75 M Cs-7SB modifier, and 0.003 M TOA in ISOPAR® L were evaluated for their respective abilities to simultaneously extract cesium and strontium from the aqueous feed simulant composition described in Table 2. The cesium and strontium distribution ratios of the mixed extraction solvents were compared to those of the FPEX I process solvent. The cesium extraction performance and strontium extraction performance of each of the mixed extractant solvents was determined using the batch contact flowsheet presented in FIG. 1, where “E1,” “E2,” and “E3” refer to three forward extraction acts: a first extraction act, a second extraction act, and a third extraction act, respectively, and “St1” and “St2” refer to two backward extraction acts: a first strip act and a second strip act, respectively. […] The aqueous feed 2 and the mixed extractant solvent 4 were combined in a vessel 6 to conduct the extraction. Two phases were formed during the extraction: the first organic phase and the first aqueous phase, with the cesium and strontium substantially distributed in the first organic phase.
The cesium and strontium distribution ratios for the mixed extractant solvents 4 were calculated for the first organic phase and are reported in Tables 3 and 4, respectively, as E1, along with the cesium and strontium distribution ratios for the FPEX I process solvent. The cesium and strontium were stripped from the first (and subsequent) organic phase to recover these radionuclides. For the strips or backward extractions, the first (and subsequent) organic phase was contacted with dilute acidic solution 8, which was 0.01 M HNO3. […]

## CCCCCCCCOc1c2cccc1Cc1cccc3c1OCCOCCOc1ccccc1OCCOCCOc1c(cccc1Cc1cccc(c1OCCCCCCCC)C3)C2 [MC-8, 1,3-alternate-25,27-di(octyloxy)calix[4]arenebenzocrown-6]
0.010 M MC-8, contact E1, 1.5 M HNO3, 0.075 M DtBuCH18C6, 0.75 M Cs-7SB, 0.003 M TOA in ISOPAR L
  DCs: 7.2
0.015 M MC-8, contact E1, 1.5 M HNO3
  DCs: 13.3
0.020 M MC-8, contact E1, 1.5 M HNO3
  DCs: 21.5
0.025 M MC-8, contact E1, 1.5 M HNO3
  DCs: 29.4
0.05 M MC-8 (as printed in text), 1.5 M HNO3
  cesium distribution ratio: 29
1.0 M HNO3, 20 °C, contact E1, 0.025 M MC-8, 0.075 M DtBuCH18C6, 0.75 M Cs-7SB, 0.003 M TOA in ISOPAR L
  DCs: 31.0
1.5 M HNO3, 20 °C, contact E1, 0.025 M MC-8
  DCs: 35.6
2.0 M HNO3, 20 °C, contact E1, 0.025 M MC-8
  DCs: 39.9
3.0 M HNO3, 20 °C, contact E1, 0.025 M MC-8
  DCs: 3rd phase
4.0 M HNO3, 20 °C, contact E1, 0.025 M MC-8
  DCs: 3rd phase
15 °C, contact E1, 1.0 M HNO3 feed, 0.025 M MC-8, 0.075 M DtBuCH18C6, 0.75 M Cs-7SB, 0.003 M TOA in ISOPAR L
  DCs: 44.5
20 °C, contact E1, 1.0 M HNO3 feed, 0.025 M MC-8
  DCs: 24.5
25 °C, contact E1, 1.0 M HNO3 feed, 0.025 M MC-8
  DCs: 15.7
30 °C, contact E1, 1.0 M HNO3 feed, 0.025 M MC-8
  DCs: 9.9
35 °C, contact E1, 1.0 M HNO3 feed, 0.025 M MC-8
  DCs: 6.2
Contact E1, batch contact flowsheet, simulated feed 1.0 M HNO3, 0.025 M MC-8
  DCs: 34.7
Contact E2, simulated feed 1.0 M HNO3, 0.025 M MC-8
  DCs: 29.0
Contact E3, simulated feed 1.0 M HNO3, 0.025 M MC-8
  DCs: 21.9
Contact St1 (strip), 0.025 M MC-8
  DCs: 0.63
Contact St2 (strip), 0.025 M MC-8
  DCs: 0.25
First forward extraction, 1.5 M HNO3 feed simulant, 25 °C, 0.007 M calixarene, 0.075 M DtBuCH18C6, 0.75 M Cs-7SB, 0.003 M TOA in ISOPAR L
  Cesium distribution ratio, contact E1: 4.2
First strip with 0.01 M HNO3, 35 °C, 0.007 M calixarene solvent
  Cesium distribution ratio, contact St1: 0.6
Second forward extraction, 1.5 M HNO3 feed, 25 °C, 0.007 M calixarene solvent
  Cesium distribution ratio, contact E2: 1.9
Second strip with 0.01 M HNO3, 35 °C, 0.007 M calixarene solvent
  Cesium distribution ratio, contact St2: 0.2
Third forward extraction, 1.5 M HNO3 feed, 25 °C, 0.007 M calixarene solvent
  Cesium distribution ratio, contact E3: 1.5

From patent US8158088B2, “Extractant compositions for co-extracting cesium and strontium, a method of separating cesium and strontium from an aqueous feed, and calixarene compounds” (Battelle Energy Alliance, LLC, priority 2008, dated 2012)
